# Values of other authors in patent US7282487B2, “Method for treating bacterial infections in horses or pigs with tilmicosin” (priority 2004, dated 2007).
smiles,measurement,value
"CC[C@H]1OC(=O)C[C@@H](O)[C@H](C)[C@@H](OC2OC(C)C(O)C(N(C)C)C2O)[C@@H](CCN2C[C@@H](C)C[C@H](C)C2)C[C@@H](C)C(=O)/C=C/C(C)=C/[C@@H]1COC1OC(C)C(O)C(OC)C1OC (stereo partly shown) [tilmicosin, Tilmicosin]",solubility in aqueous solutions,moderately soluble
